Data from US20230039917A1, “EXO-AZA SPIRO INHIBITORS OF MENIN-MLL INTERACTION” (Janssen Pharmaceutica NV, priority 2017, published 2023).
Read-outs that look alike come from different tables or passages of the source.

How the values were obtained:
[1] = system: MV-4-11 cells; test: Proliferation assay A (spheroid assay) MV-4-11; assay type: cell-based; details: Homo sapiens, MV4-11, 192 h, 8 d, AUC of confluence against time, absolute IC50, read-out: (3a) Spheroid assay MV-4-11 (IC50(μM)) Assay A
Method: (§1) 3a) Proliferation Assay A
(§2) The anti-proliferative effect of menin/MLL protein/protein interaction inhibitor test compounds was assessed in human leukemia cell lines. The cell lines MV-4-11 and MOLM14 harbor MLL translocations and express the MLL fusion proteins MLL-AF4 and MLL-AF9, respectively, as well as the wildtype protein from the second allele. […] K562 was used as a control cell line containing two MLL wildtype alleles in order to exclude compounds that display general cytotoxic effects.
(§3) MV-4-11 and MOLM14 were cultured in RPMI-1640 (Sigma Aldrich) supplemented with 10% fetal bovine serum (HyClone), 2 mM L-glutamine (Sigma Aldrich) and 50 μg/ml gentamycin (Gibco). K562 were propagated in RPMI-1640 (Sigma Aldrich) supplemented with 20% fetal bovine serum (HyClone), 2 mM L-glutamine (Sigma Aldrich) and 50 μg/ml gentamycin (Gibco).
(§4) In order to assess the anti-proliferative effects, 1,500 MV-4-11, 300 MOLM14 or 750 K562 cells were seeded in 200 μl media per well in 96-well round bottom, ultra-low attachment plates (Costar, catalogue number 7007). Cell seeding numbers were chosen based on growth curves to ensure linear growth throughout the experiment. Test compounds were added at different concentrations and the DMSO content was normalized to 0.3%. Cells were incubated for 8 d at 37° C. and 5% CO2. Spheroid like growth was monitored in real-time by live-cell imaging (IncuCyteZOOM, Essenbio, 4× objective) acquiring one image every four hours for 8 d. Confluence (%) as a measure of spheroid size was determined using an integrated analysis tool.
(§5) In order to determine the cumulative effect of the test compounds over time, the area under the curve (AUC) in a plot of confluence against time was calculated. Confluence at the beginning of the experiment (t=0) was used as baseline for the AUC calculation.
(§6) Absolute IC50 values were calculated according to the following procedure:
(§7) % Control=(AUC sample/AUC control)*100
(§8) AUC control=mean AUC of control values (cells without compound/DMSO as vehicle control)
(§9) A non-linear curve fit was applied using the least squares (ordinary) fit method to the plot of % control versus compound concentration. Based on this, the absolute IC50 value (half maximal inhibitory concentration of the test compound causing an anti-proliferative effect of 50% relative to the vehicle control) was calculated.

[2] = target: T1, menin.FITC-MBM1 complex (terbium chelate-labeled menin) (Homo sapiens, UniProt O00255, F410E/T541A); test: Menin/MLL homogenous time-resolved fluorescence (HTRF) assay; assay type: binding
T1 construct: Menin (a.a. 1-610-6×his tag) was labeled with terbium cryptate as follows
T1 sequence (O00255 with tags, fused parts or gaps F410E/T541A): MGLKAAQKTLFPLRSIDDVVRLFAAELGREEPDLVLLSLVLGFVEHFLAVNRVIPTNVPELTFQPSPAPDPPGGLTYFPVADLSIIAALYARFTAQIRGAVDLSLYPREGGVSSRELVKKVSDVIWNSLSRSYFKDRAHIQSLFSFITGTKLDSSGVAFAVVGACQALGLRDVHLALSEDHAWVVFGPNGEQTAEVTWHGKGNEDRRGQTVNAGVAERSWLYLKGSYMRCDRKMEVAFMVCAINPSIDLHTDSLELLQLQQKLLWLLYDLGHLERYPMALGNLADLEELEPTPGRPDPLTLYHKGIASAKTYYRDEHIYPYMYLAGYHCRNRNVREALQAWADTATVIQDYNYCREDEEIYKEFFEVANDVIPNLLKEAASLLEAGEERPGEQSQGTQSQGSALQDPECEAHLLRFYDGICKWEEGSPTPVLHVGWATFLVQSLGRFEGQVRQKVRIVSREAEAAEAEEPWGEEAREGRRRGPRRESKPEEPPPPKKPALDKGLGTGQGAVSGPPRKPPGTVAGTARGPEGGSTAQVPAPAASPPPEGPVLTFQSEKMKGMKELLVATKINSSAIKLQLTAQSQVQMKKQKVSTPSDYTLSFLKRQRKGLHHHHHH
Method: 2) Menin/MLL Homogenous Time-Resolved Fluorescence (HTRF) Assay
To an untreated, white 384-well microtiter plate was added 40 nL 200× test compound in DMSO and 4 μL 2× terbium chelate-labeled menin (vide infra for preparation) in assay buffer (40 mM Tris.HCl, pH 7.5, 50 mM NaCl, 1 mM DTT and 0.05% Plutonic F-127). After incubation of test compound and terbium chelate-labeled menin for 5 min at ambient temperature, 4 μL2× FITC-MBM1 peptide (FITC-β-alanine-[…]-NH2) in assay buffer was added, the microtiter plate centrifuged at 1000 rpm for 1 min and the assay mixtures incubated for 15 min at ambient temperature. The relative amount of menin.FITC-MBM1 complex present in an assay mixture is determined by measuring the homogenous time-resolved fluorescence (HTRF) of the terbium/FITC donor/acceptor fluorphore pair using a BMG Pherastar plate reader (ex. 337 nm/terbium em. 490 nm/FITC em. 520 nm) at ambient temperature. The degree of fluorescence resonance energy transfer (the HTRF value) is expressed as the ratio of the fluorescence emission intensities of the FITC and terbium fluorophores (F^em 520 nm/F^em 490 nm). The final concentrations of reagents in the binding assay are 100 pM terbium chelate-labeled menin (location 1) or 600 pM terbium chelate-labeled menin (location 2), 75 nM FITC-MBM1 peptide and 0.5% DMSO in assay buffer. Dose-response titrations of test compounds are conducted using an 11 point, three-fold serial dilution scheme, starting typically at 25 μM (location 1) or starting typically at 10 μM (location 2).
Compound potencies were determined by first calculating % inhibition at each compound concentration according to equation 1:
% inhibition=((HC−LC)−(HTRF^compound−LC))/(HC−LC))*100 (Eqn 1)
Where LC and HC are the HTRF values of the assay in the presence or absence of a saturating concentration of a compound that competes with FITC-MBM1 for binding to menin, and HTRF^compound is the measured HTRF value in the presence of the test compound. HC and LC HTRF values represent an average of at least 16 replicates per plate.
% inhibition=Bottom+(Top−Bottom)/(1+10^((log IC50−log [cmpd])*h)) (Eqn 2)
Where Bottom and Top are the lower and upper asymptotes of the dose-response curve, respectively, IC50 is the concentration of compound that yields 50% inhibition of signal and h is the Hill coefficient.
Preparation of Terbium cryptate labeling of Menin: Menin (a.a. 1-610-6×his tag) was labeled with terbium cryptate as follows. 2 mg of Menin was buffer exchanged into 1× phosphate buffered saline. 16 uM Menin was incubated with 4-fold molar excess NHS-terbium cryptate (Cisbio Bioassays, Bedford, Mass.) for 2 hours at room temperature. The labeled protein was purified away from free label by running the reaction over a Superdex 200 Increase 10/300 GL column at 0.75 ml/min. Peak fractions were collected, aliquoted and frozen at −80° C.

[3] = system: MOLM14 cells; test: Proliferation assay A (spheroid assay) MOLM14; assay type: cell-based; details: Homo sapiens, MOLM-14, 192 h, 8 d, AUC of confluence against time, absolute IC50, read-out: (3a) Spheroid assay MOLM14 (IC50(μM)) Assay A
Method: as §1, §2, §3, §4, §5, §6, §7, §8, §9

[4] = system: MOLM14 cells; test: Proliferation assay B (spheroid assay) MOLM14; assay type: cell-based, human; details: Homo sapiens, MOLM-14, 192 h, confluence at day 8, read-out: (3b) Spheroid assay MOLM14 (IC50(μM)) Assay B
Method: (§10) 3b) Proliferation Assay B
as §2, §3
as §4, with “MOLM14 cells” for “MOLM14”, “measured” for “monitored”, “images at day 8.” for “one image every four hours for 8 d.”
In order to determine the effect of the test compounds over time, the confluence in each well as a measure of spheroid size, was calculated. Confluence […] at the beginning of the experiment (t=0) was used as baseline for the calculation.
Absolute IC50 values were calculated as percent change in confluence as follows:
LC=Low Control: cells treated with 1 μM of the cytotoxic agent staurosporin
HC=High Control: Mean confluence (%) (DMSO treated cells)
Effect=100−(100*(Sample−LC)/(HC−LC))
To determine the IC50 a curve is fitted to the plot of % Effect vs Log 10 compound concentration using a sigmoidal fit with a variable slope and fixing the maximum to 100% and the minimum to 0%.

[5] = system: MV-4-11 cells; test: Proliferation assay B (spheroid assay) MV-4-11; assay type: cell-based; details: Homo sapiens, MV4-11, 192 h, confluence at day 8, read-out: (3b) Spheroid assay MV-4-11 (IC50(μM)) Assay B
Method: as §10, §2
MV-4-11 and MOLM14 were cultured in RPMI-1640 (Sigma Aldrich) supplemented with 10% fetal bovine serum (HyClone), 2 mM L-glutamine (Sigma Aldrich) and 50 μg/ml gentamycin (Gibco). […]
In order to assess the anti-proliferative effects, 1,500 MV-4-11, 300 MOLM14 cells or 750 K562 cells were seeded in 200 μl media per well in 96-well round bottom, ultra-low attachment plates (Costar, catalogue number 7007). […] Spheroid like growth was measured in real-time by live-cell imaging (IncuCyteZOOM, Essenbio, 4× objective) acquiring images at day 8. Confluence (%) as a measure of spheroid size was determined using an integrated analysis tool.
In order to determine the effect of the test compounds over time, the confluence in each well as a measure of spheroid size, was calculated. […]
Absolute IC50 values were calculated as percent change in confluence as follows: […]

[6] = location 1, read-out: (2) location 1 Menin HTRF assay (IC50 (nM))
[7] = location 2, read-out: (2) location 2 Menin HTRF assay (IC50 (nM))

Structure (SMILES) | IC50 [1] [µM] | IC50 [2, 6] [nM] | IC50 [3] [µM] | IC50 [2, 7] [nM] | IC50 [4] [µM] | IC50 [5] [µM]
FC(F)(F)Cc1cc2c(N3CCC4(CCC(Nc5ccc(-c6cc[nH]n6)cc5)C4)C3)ncnc2s1 (centres unmarked) [Compound 138] | 3.92 | – | > 3.75 | 8.8 | – | –
N#CCn1c(=O)[nH]c2cc(CNC3CCC4(C3)CN(c3ncnc5sc(CC(F)(F)F)cc35)C4)ccc21 (centres unmarked) [Compound 99] | – | – | – | 1.1 | 0.19 | 0.03
O=c1[nH]c2cc(CN[C@H]3CCC4(C3)CN(c3ncnc5sc(CC(F)(F)F)cc35)C4)ccc2o1 (single isomer, unassigned) [Compound 58] | – | – | 0.14 | – | – | –
FC(F)(F)Cc1cc2c(N3CC[C@@]4(CC[C@H](NCc5ccccc5)C4)C3)ncnc2s1 (single isomer, unassigned) [Compound 6] | 1.12 | – | – | – | – | –

Continued, values first:

IC50 [1] [µM] | IC50 [2, 6] [nM] | IC50 [3] [µM] | IC50 [2, 7] [nM] | IC50 [4] [µM] | IC50 [5] [µM] | Structure (SMILES)
0.5 | – | – | – | – | – | FC(F)(F)Cc1cc2c(N3CC[C@]4(CC[C@H](NCc5ccccc5)C4)C3)ncnc2s1 (single isomer, unassigned) [Compound 4]
0.41 | 20.4 | 2.36 | – | – | – | FC(F)(F)Cc1cc2c(N3CC4(CC[C@H](NCc5ccccc5)C4)C3)ncnc2s1 [Compound 45]
0.31 | 22 | 1.87 | – | – | – | FC(F)(F)Cc1cc2c(N3CC4(CCC(NCc5ccccc5)C4)C3)ncnc2s1 (single isomer, unassigned) [Compound 46]
0.45 | – | 2 | 5.1 | – | – | O=c1[nH]c2ccc(CN[C@H]3CCC4(C3)CN(c3ncnc5sc(CC(F)(F)F)cc35)C4)cc2o1 (single isomer, unassigned) [Compound 56]
0.91 | 95.8 | – | – | – | – | CC(C)CNC1CC2(CCN(c3ncnc4sc(CC(F)(F)F)cc34)C2)C1 (centres unmarked) [Compound 50]
